This passage reports Kd and Ki results from patent US20240391959A1, “BICYCLIC PEPTIDE LIGANDS […] FOR TRANSFERRIN RECEPTOR 1 (TfR1)” (BicycleTx Limited, priority 2020, published 2024).

Read-outs that look alike come from different tables or passages of the source. Starred links: 1 amine or outer side, 2 acyl side, 3 side chain; linkers in the order of their positions; H or OH if unused. Positions of bridges follow the written chain, without caps; N, C: chain ends. Residues, ends and D or L forms follow the SMILES beside them. TATB = O=C(C[*:1])N1CN(C(=O)C[*:2])CN(C(=O)C[*:3])C1

What all share (assay type): binding
In one assay the target is cynomolgus TfR1.
Assay [1] addresses T1, human TfR1 (Homo sapiens, UniProt P02786). The assay is described as follows: biochemical. Also noted: His6-tagged TfR1 (a.a. 89-760) (ACRO Biosystems, CD1-H5243 and TFR-C524a); His6; purchased R&D Systems or Acro Biosystems 2474-TR or CD1-H5243.
Assay [2] concerns the target T1, human TfR1. The assay is described as follows: biochemical. More on the design: His6-tagged TfR1 (a.a. 89-760) (ACRO Biosystems, CD1-H5243 and TFR-C524a); His6; purchased R&D Systems or Acro Biosystems 2474-TR or CD1-H5243. The source holds these as a separate data set.

T1 sequence (P02786 89-760): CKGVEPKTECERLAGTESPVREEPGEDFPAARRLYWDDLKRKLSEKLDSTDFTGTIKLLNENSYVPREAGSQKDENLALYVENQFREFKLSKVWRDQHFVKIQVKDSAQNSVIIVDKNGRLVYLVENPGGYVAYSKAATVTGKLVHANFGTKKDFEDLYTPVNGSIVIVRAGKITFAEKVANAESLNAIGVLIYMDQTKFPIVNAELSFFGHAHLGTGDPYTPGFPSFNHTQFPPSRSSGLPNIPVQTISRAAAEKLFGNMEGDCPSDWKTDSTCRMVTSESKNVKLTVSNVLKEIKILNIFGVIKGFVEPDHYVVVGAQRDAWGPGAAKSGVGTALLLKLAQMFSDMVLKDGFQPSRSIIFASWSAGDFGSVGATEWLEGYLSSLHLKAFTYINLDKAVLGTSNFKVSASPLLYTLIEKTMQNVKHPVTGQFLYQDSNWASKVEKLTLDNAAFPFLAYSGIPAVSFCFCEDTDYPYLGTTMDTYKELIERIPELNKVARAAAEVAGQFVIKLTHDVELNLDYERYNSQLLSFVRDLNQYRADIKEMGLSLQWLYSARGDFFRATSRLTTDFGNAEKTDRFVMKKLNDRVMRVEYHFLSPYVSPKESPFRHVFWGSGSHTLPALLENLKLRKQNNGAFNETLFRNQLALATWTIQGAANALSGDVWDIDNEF

By Kd is commonly meant the constant that tells how readily two partners part at equilibrium. By Ki is commonly meant a measure of affinity in units of concentration, obtained from inhibition or displacement. As for `CC[C@H](C)[C@@H]1NC(=O)[C@@H]2CSCC(=O)N3CN(CN(C3)C(=O)CSC[C@@H](C(=O)N3CCC[C@H]3C(=O)N[C@@H](Cc3c[nH]cn3)C(=O)N3CCC[C@H]3C(N)=O)NC(=O)[C@H](Cc3ccc(O)cc3)NC(=O)[C@H](CO)NC1=O)C(=O)CSC[C@H](NC(=O)[C@H](C)N)C(=O)N[C@@H](CO)C(=O)N1CCC[C@H]1C(=O)N[C@@H](CC(=O)O)C(=O)N[C@@H](C)C(=O)N[C@@H](Cc1c[nH]cn1)C(=O)N[C@@H](CC(C)C)C(=O)NCC(=O)N2` [BCY17115, A-(SEQ ID NO: 9)-PHP] (H-ACSPDAHLGCISYCPHP-NH2; linker 2-10-14 via TATB; N-terminus and C-terminus assumed), the Kd on cynomolgus TfR1 was 1.24 µM; on human TfR1 [2] (Human TfR1 Kd (nM)) it was 60 nM. The Ki at human TfR1 [1] (Geomean Ki (μM)) and on human TfR1 [1] (Human TfR1 Ki (nM)) was 0.03 µM each time.

Regarding `CC[C@H](C)[C@@H]1NC(=O)[C@@H]2CSCC(=O)N3CN(CN(C3)C(=O)CSC[C@H](NC(=O)[C@H](CCSC)NC(=O)[C@H](Cc3c[nH]c4ccccc34)NC(=O)[C@@H](N)Cc3c[nH]cn3)C(=O)N[C@@H](CO)C(=O)N3CCC[C@H]3C(=O)N[C@@H](CC(=O)O)C(=O)N[C@@H](C)C(=O)N[C@@H](Cc3c[nH]cn3)C(=O)N[C@@H](CC(C)C)C(=O)NCC(=O)N2)C(=O)CSC[C@@H](C(=O)N[C@@H](C)C(N)=O)NC(=O)[C@H](Cc2ccc(O)cc2)NC(=O)[C@H](CO)NC1=O` [BCY17110, HWM-(SEQ ID NO: 9)-A] (H-HWMCSPDAHLGCISYCA-NH2; linker 4-12-16 via TATB), the Kd on cynomolgus TfR1 worked out at 0.232 µM; at human TfR1 [2] (Human TfR1 Kd (nM)), 15 nM. The same molecule registered a Ki on human TfR1 [1] (Geomean Ki (μM)) of 0.022 µM.

Consider `CC[C@H](C)[C@@H]1NC(=O)[C@@H]2CSCC(=O)N3CN(CN(C3)C(=O)CSC[C@@H](C(=O)N[C@@H](C)C(N)=O)NC(=O)[C@H](Cc3ccc(O)cc3)NC(=O)[C@H](CO)NC1=O)C(=O)CSC[C@H](NC(=O)[C@H](C)N)C(=O)N[C@@H](CO)C(=O)N1C[C@H](O)C[C@H]1C(=O)N[C@@H](CC(=O)O)C(=O)N[C@@H](C)C(=O)N[C@@H](Cc1c[nH]cn1)C(=O)N[C@@H](CC(C)C)C(=O)NCC(=O)N2` [BCY16047, A-(SEQ ID NO: 15)-A], for which the Kd at cynomolgus TfR1 amounted to 4.83 µM; on human TfR1 [2] (read-out: Human TfR1 Kd) it was 49 nM. Besides, the Ki was found to be 0.133 µM at human TfR1 [1] (Geomean Ki (μM)) and 0.042 µM at human TfR1 [1] (Human TfR1 Ki (nM)).

Consider `CC[C@H](C)[C@@H]1NC(=O)[C@@H]2CSCC(=O)N3CN(CN(C3)C(=O)CSC[C@H](NC(=O)[C@H](Cc3ccccc3)NC(=O)[C@H](CO)NC(=O)[C@@H](N)CCC(=O)O)C(=O)N[C@@H](CO)C(=O)N3CCC[C@H]3C(=O)N[C@@H](CC(=O)O)C(=O)N[C@@H](C)C(=O)N[C@@H](Cc3c[nH]cn3)C(=O)N[C@@H](CC(C)C)C(=O)NCC(=O)N2)C(=O)CSC[C@@H](C(=O)N[C@@H](C)C(N)=O)NC(=O)[C@H](Cc2ccc(O)cc2)NC(=O)[C@H](CO)NC1=O` [BCY17113, ESF-(SEQ ID NO: 9)-A] (H-ESFCSPDAHLGCISYCA-NH2; linker 4-12-16 via TATB), for which the Kd on cynomolgus TfR1 turned out to be 1.66 µM; on human TfR1 [2] (Human TfR1 Kd (nM)), 308 nM. The same molecule had a Ki on human TfR1 [1] (Geomean Ki (μM)) of 0.103 µM.

Turning to `CC[C@H](C)[C@@H]1NC(=O)[C@@H]2CSCC(=O)N3CN(CN(C3)C(=O)CSC[C@H](NC(C)=O)C(=O)N[C@@H](CO)C(=O)N[C@@H](C)C(=O)N[C@@H](CC(=O)O)C(=O)N[C@@H](C)C(=O)N[C@@H](Cc3c[nH]cn3)C(=O)N[C@@H](CC(C)C)C(=O)NCC(=O)N2)C(=O)CSC[C@@H](C(N)=O)NC(=O)[C@H](Cc2ccc(O)cc2)NC(=O)[C@H](CO)NC1=O` [BCY17987, Ac-(SEQ ID NO: 19)] (Ac-CSADAHLGCISYC-NH2; linker 1-9-13 via TATB), the Kd at cynomolgus TfR1 is 5.14 µM; at human TfR1 [2] (Human TfR1 Kd (nM)), 50 nM. The Ki on human TfR1 [1] (Geomean Ki (μM)) came to 0.042 µM; on human TfR1 [1] (Human TfR1 Ki (nM)), 0.383 µM.

On to `CC[C@H](C)[C@@H]1NC(=O)[C@@H]2CSCC(=O)N3CN(CN(C3)C(=O)CSC[C@@H](C(=O)N[C@@H](CCC(=O)O)C(=O)N[C@@H](Cc3c[nH]cn3)C(=O)N[C@@H](CCC(N)=O)C(=O)N[C@@H](CCC(=O)O)C(N)=O)NC(=O)[C@H](Cc3ccc(O)cc3)NC(=O)[C@H](CO)NC1=O)C(=O)CSC[C@H](NC(=O)[C@H](C)N)C(=O)N[C@@H](CO)C(=O)N1CCC[C@H]1C(=O)N[C@@H](CC(=O)O)C(=O)N[C@@H](C)C(=O)N[C@@H](Cc1c[nH]cn1)C(=O)N[C@@H](CC(C)C)C(=O)NCC(=O)N2` [BCY17119, A-(SEQ ID NO: 9)-EHQE] (H-ACSPDAHLGCISYCEHQE-NH2; linker 2-10-14 via TATB), for which the values for the Kd at cynomolgus TfR1 and on human TfR1 [2] (Human TfR1 Kd (nM)) were 5.65 µM and 212 nM, respectively. The same molecule showed a Ki at human TfR1 [1] (Geomean Ki (μM)) of 0.16 µM.

In the case of `CC[C@H](C)[C@@H]1NC(=O)[C@@H]2CSCC(=O)N3CN(CN(C3)C(=O)CSC[C@@H](C(=O)N[C@@H](CCC(=O)O)C(=O)N3CCCC[C@H]3C(=O)N[C@@H](Cc3c[nH]c4ccccc34)C(N)=O)NC(=O)[C@H](Cc3ccc(O)cc3)NC(=O)[C@H](CO)NC1=O)C(=O)CSC[C@H](NC(C)=O)C(=O)N[C@@H](CO)C(=O)N1CCC[C@H]1C(=O)N[C@@H](CC(=O)O)C(=O)N[C@@H](C)C(=O)N[C@@H](Cc1c[nH]cn1)C(=O)N[C@@H](CC(C)C)C(=O)NCC(=O)N2` [BCY18039, Ac-(SEQ ID NO: 9)-E[Pip]W], the equilibrium dissociation constant (Kd) at cynomolgus TfR1 is 0.819 µM; on human TfR1 [2] (Human TfR1 Kd (nM)), 8.6 nM. The Ki at human TfR1 [1] (Geomean Ki (μM)) and at human TfR1 [1] (Human TfR1 Ki (nM)) was 0.008 µM each time.

Regarding `CC[C@H](C)[C@@H]1NC(=O)[C@@H]2CSCC(=O)N3CN(CN(C3)C(=O)CSC[C@H](NC(C)=O)C(=O)N[C@@H](CO)C(=O)N3CCC[C@H]3C(=O)N[C@@H](CC(=O)O)C(=O)N[C@@H](C)C(=O)N[C@@H](Cc3c[nH]cn3)C(=O)N[C@@H](CC(C)C)C(=O)NCC(=O)N2)C(=O)CSC[C@@H](C(N)=O)NC(=O)[C@H](Cc2ccc(O)cc2)NC(=O)[C@H](CO)NC1=O` [BCY15891, Ac-(SEQ ID NO: 9)] (Ac-CSPDAHLGCISYC-NH2; linker 1-9-13 via TATB), the results for the dissociation constant Kd at cynomolgus TfR1 and on human TfR1 [2] (Human TfR1 Kd (nM)) were 3.99 µM and 46 nM, respectively. In addition, the results for the Ki at human TfR1 [1] (Geomean Ki (μM)) and on human TfR1 [1] (Human TfR1 Ki (nM)) were 0.067 µM and 0.094 µM, respectively.

For the molecule `CC[C@H](C)[C@@H]1NC(=O)[C@@H]2CSCC(=O)N3CN(CN(C3)C(=O)CSC[C@@H](C(=O)N[C@@H](C)C(N)=O)NC(=O)[C@H](Cc3ccc4ccccc4c3)NC(=O)[C@H](CO)NC1=O)C(=O)CSC[C@H](NC(=O)[C@H](C)N)C(=O)N[C@@H](CO)C(=O)N1CCC[C@H]1C(=O)N[C@@H](CC(=O)O)C(=O)N[C@@H](C)C(=O)N[C@@H](Cc1c[nH]cn1)C(=O)N[C@@H](CC(C)C)C(=O)NCC(=O)N2` [BCY16031, A-(SEQ ID NO: 36)-A], the Kd turned out to be 6.48 µM at cynomolgus TfR1 and 68 nM at human TfR1 [2] (read-out: Human TfR1 Kd). In addition, the affinity at human TfR1 [1] (Geomean Ki (μM)) corresponds to a Ki of 0.119 µM.

`CC[C@H](C)[C@@H]1NC(=O)[C@@H]2CSCC(=O)N3CN(CN(C3)C(=O)CSC[C@H](NC(=O)[C@H](CO)NC(=O)[C@@H](NC(=O)[C@@H](N)Cc3c[nH]cn3)[C@@H](C)O)C(=O)N[C@@H](CO)C(=O)N3CCC[C@H]3C(=O)N[C@@H](CC(=O)O)C(=O)N[C@@H](C)C(=O)N[C@@H](Cc3c[nH]cn3)C(=O)N[C@@H](CC(C)C)C(=O)NCC(=O)N2)C(=O)CSC[C@@H](C(=O)N[C@@H](C)C(N)=O)NC(=O)[C@H](Cc2ccc(O)cc2)NC(=O)[C@H](CO)NC1=O` [BCY17111, HTS-(SEQ ID NO: 9)-A] (H-HTSCSPDAHLGCISYCA-NH2; linker 4-12-16 via TATB): the Kd came out at 0.907 µM at cynomolgus TfR1 and 8.3 nM at human TfR1 [2] (Human TfR1 Kd (nM)). On human TfR1 [1] (Geomean Ki (μM)), the Ki came to 0.086 µM.

Consider `CC[C@H](C)[C@@H]1NC(=O)[C@@H]2CSCC(=O)N3CN(CN(C3)C(=O)CSC[C@@H](C(=O)N[C@@H](C)C(N)=O)NC(=O)[C@H](Cc3ccncc3)NC(=O)[C@H](CO)NC1=O)C(=O)CSC[C@H](NC(=O)[C@H](C)N)C(=O)N[C@@H](CO)C(=O)N1CCC[C@H]1C(=O)N[C@@H](CC(=O)O)C(=O)N[C@@H](C)C(=O)N[C@@H](Cc1c[nH]cn1)C(=O)N[C@@H](CC(C)C)C(=O)NCC(=O)N2` [BCY16032, A-(SEQ ID NO: 48)-A], for which the Kd on cynomolgus TfR1 was determined as 30 µM; at human TfR1 [2] (Human TfR1 Kd (nM)), 305 nM. The molecule also registered a Ki on human TfR1 [1] (Geomean Ki (μM)) of 0.654 µM.
